Tests used:
[1] = test system: CD1 mice treated with LPS/D-GalN; assay: Survival of mice with LPS/D-GalN induced acute liver failure; assay type: in vivo, mouse; conditions: 890 mg/kg IP 3 hours prior to LPS/D-GalN
From the text: Six to eight week old CD1 mice are obtained from Charles River. Animals were housed in Wayne State University or University of Padova, Vallisneri Interdepartmental Complex animal quarters until the time of the experiment. Food was withdrawn the night before the day of the experiment. All experiments were approved by the Animal Investigation Committee of Wayne State University or by the Authority of the University of Padova and authorized by the Italian Ministry of Health.
Animals were divided into two groups. Group one animals consisted of both male and female mice injected with LPS and D-GalN to induce hepatic failure. Survival was monitored post LPS/D-GalN administration and the time of injection was considered to be zero hour (t=0). Group two animals consisted of mice injected with MSO three hours prior to LPS and D-GalN administration. […] […] For analysis of the effect of MSO treatment on the cell death pathway activated by the Fas ligand, mice were pre-treated with MSO as described above, and at time zero were injected with Jo2 antibody ([…]).
Animals were monitored continuously post LPS/D-GalN or Jo2 administration. […] The time of death was recorded as hours after LPS/D-GalN injection. Fisher's exact test was used to determine two-tailed p values for the statistical between the treated and untreated groups.

glutamine synthetase = biological target: T1, glutamine synthetase (Mus musculus, UniProt P15105); assay: Glutamine synthetase activity in liver extracts of treated mice; assay type: in vivo; conditions: 890 mg/kg IP 3 hours prior to LPS/D-GalN
T1 construct: liver homogenates were prepared from liver tissue excised and immediately homogenized; from tissue; host or cells: mouse liver homogenate supernatant
T1 sequence (P15105 2-373 limits assumed): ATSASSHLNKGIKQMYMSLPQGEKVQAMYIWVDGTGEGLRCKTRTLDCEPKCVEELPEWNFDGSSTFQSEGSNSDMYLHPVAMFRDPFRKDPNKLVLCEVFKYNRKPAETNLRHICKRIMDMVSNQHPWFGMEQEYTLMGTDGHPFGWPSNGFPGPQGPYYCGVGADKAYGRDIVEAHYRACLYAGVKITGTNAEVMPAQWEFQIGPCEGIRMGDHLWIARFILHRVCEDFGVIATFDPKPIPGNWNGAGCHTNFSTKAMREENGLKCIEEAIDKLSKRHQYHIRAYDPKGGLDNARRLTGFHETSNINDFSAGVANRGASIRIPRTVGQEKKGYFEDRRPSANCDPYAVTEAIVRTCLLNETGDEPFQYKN
Method: Tissue and plasma were collected from male mice, which were divided into two groups. One group was injected with saline three hours prior to LPS/D-GalN injections. The second group was given MSO three hours prior to being injected with LPS/D-GalN. Control mice (t=0) were treated with MSO or saline for 3 hours and then euthanized (not exposed to LPS/D-GalN). After LPS/D-GalN injection at time zero, tissue and plasma samples were collected at one-hour time intervals from 1 to 5 hours.
To analyze enzyme activities liver homogenates were prepared from liver tissue excised and immediately homogenized in ice-cold buffer consisting of 250 mM sucrose, 10 mM Tris and 0.1 mM EGTA with protease inhibitor cocktail (Sigma #P8340). The homogenized tissue was centrifuged at 2375×g for 5 min. The tissue supernatant fraction was frozen on dry ice and stored at −80° C.
Glutamine synthetase was assayed as described by Meister, A. Glutamine synthetase from mammalian tissues. […] The reaction with the substrates glutamine and hydroxylamine was stopped using ferric chloride stop solution (0.37 M FeCl3, 0.67 M HCl, 0.20 M TCA) and the colorimetric product formed—γ-glutamyl hydroxamate—was measured at 535 nm. The absorbance values were converted to activities by comparison to a standard curve of pure glutamyl hydroxamate (a generous gift from Arthur J. Cooper, Department of Biochemistry and Molecular Biology, New York Medical College).

GGCS = biological target: T2, GGCS (Homo sapiens, UniProt P48506); conditions: known from the literature; cited from earlier work
T2 sequence (P48506 1-637): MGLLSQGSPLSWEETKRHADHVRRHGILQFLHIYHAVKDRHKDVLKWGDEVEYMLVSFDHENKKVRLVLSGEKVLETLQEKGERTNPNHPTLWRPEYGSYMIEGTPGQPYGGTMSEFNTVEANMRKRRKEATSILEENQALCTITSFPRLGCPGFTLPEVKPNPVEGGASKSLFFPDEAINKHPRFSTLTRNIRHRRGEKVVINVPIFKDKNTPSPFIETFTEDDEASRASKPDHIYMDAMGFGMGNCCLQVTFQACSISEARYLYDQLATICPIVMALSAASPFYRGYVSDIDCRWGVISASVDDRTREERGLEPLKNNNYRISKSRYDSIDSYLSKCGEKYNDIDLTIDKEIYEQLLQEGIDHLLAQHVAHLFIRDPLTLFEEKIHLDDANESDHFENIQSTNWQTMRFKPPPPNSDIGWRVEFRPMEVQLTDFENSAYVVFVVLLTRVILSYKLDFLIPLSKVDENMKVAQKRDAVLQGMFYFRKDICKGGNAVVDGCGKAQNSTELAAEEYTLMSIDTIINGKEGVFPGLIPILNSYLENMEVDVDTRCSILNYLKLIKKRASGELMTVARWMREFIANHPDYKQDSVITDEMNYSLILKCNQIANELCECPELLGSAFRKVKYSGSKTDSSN

MLP 29 cells = assay: Flow cytometry of apoptosis induced by TNF-α plus actinomycin D; assay type: cell-based, mouse; conditions: 9 mM, one hour preincubation, then TNF-α plus actinomycin D for 10 hours
Method: Output of multiparametric FACS analyses. Mouse liver progenitor cells, MLP 29, are incubated for one hour with either no addition (first lane, FIG. 3C(a)), 9 mM MSO (second lane, FIG. 3C(b)), or 9 mM BSO (third lane, FIG. 3C(c)), then exposed for 10 hours to either no addition—(BAS, first column), TNF-α plus actinomycin D (second column), or actinomycin D alone (third column). Viable cells (V) are delimited by the quadrant. Apoptotic cells display mitochondrial depolarization (reduced TMRM staining) and/or expose phosphatidylserine on their surface (increased Annexin V-FITC staining). Propidium iodide-positive, i.e. dead cells (PI), are evaluated on a PI vs TMRM diagram (not shown); these cells are excluded from the reported plots, but the percentage of propidium iodide positive (i.e. dead) cells is shown in each box (PI), as is the percentage of viable cells (V);
Samples were analyzed on a FACSCalibur flow cytometer (Becton Dickinson, San Diego, Calif.). Data acquisition was performed using CellQuest software and data analysis with WinMD1 software. Each experiment was repeated at least four times.

Q: Which results are given for `CCCCS(=N)(=O)CCC(N)C(=O)O` (centres unmarked) [BSO, buthionine sulfoximine, reference compound]?
A: effect on survival of mice treated with LPS/D-GalN [1]: no effect; survival ([1]; 3 out of 20 treated mice survived): 15%; effect on glutamine synthetase activities (glutamine synthetase): no effect; inhibition of GGCS, effectiveness relative to MSO (GGCS): 100 times; rescue of cells from apoptosis induced by TNF-α (MLP 29 cells): neither MSO nor BSO could rescue cells

From patent US9119821B2, “Use of methionine sulfoximine to treat acute liver failure and other diseases caused by an inflammatory cytokine response” (priority 2010, dated 2015)
